One molecule from US11123033B2, “Molecular imaging method for evaluating liver regeneration capacity after ALPPS operation” (Harbin Medical University, priority 2019, dated 2021) can be followed below.

This data set deals with rabbit VX2 liver cancer model. As to the kind of experiment: 18F-FCH PET/CT imaging of residual liver after first-stage ALPPS. The data set is classed as in vivo. The settings on record: ALPPS group. From the text:
using incision and fragmentation method for liver cancer tissues; first inoculating a VX2 tumor strain into the muscle outside the rabbit hind leg after passage, wherein the tumor grows to a diameter of 2.0-3.0 cm after 3 weeks; removing the tumor in the muscle of the rabbit hind, eliminating the necrotic tissue, selecting fish-like tissue at the edge of the tumor, and using ophthalmic scissors to cut the tumor tissue into tissue blocks of 1 mm3, and washing repeatedly with saline and putting in a sterile Petri dish for use; putting an experimental rabbit into general anesthesia (method of anesthesia: intramuscular injection of Shutai 1 ml) and fixing it on an animal operating table in supine position; performing skin preparation, disinfection, and spreading sterile surgical scarves on a surgical region of a rabbit abdomen; injecting lidocaine into linea alba 1 cm below xiphoid process for local anesthesia, and making a midline incision of 4 to 5 cm in an upper abdomen and cutting abdominal wall layer by layer to expose a left lateral lobe of a liver; cutting a thicker liver lobe to form a hole passage of about 3 mm×3 mm, and implanting 3-5 tumors into it, then filling liver incision with gelatin sponge particles and pressing to stop bleeding, followed by suturing the incision and closing the abdomen.
two weeks after implanting the rabbit liver with the VX2 tumor strain, performing the first stage of ALPPS (i.e. associating liverpartition and portal vein ligation for staged hepatectomy) on tumor-bearing rabbits;
dividing the tumor-bearing rabbits randomly into an ALPPS group (the left branch of the portal vein of the liver is ligated, and the liver parenchyma is dissected along the ischemic line between the left middle lobe of the liver and the right lobe of the liver) and a Sham group (i.e., a sham operation group, no portal vein ligation and liver dissection); fasting rabbits in the ALPPS group for 12 hours before surgery, and fixing on the table in the supine position after general anesthesia, and performing skin preparation in the surgical region; injecting lidocaine into the left under the xiphoid process, opening the abdomen after anesthesia around the incision with an incision length of about 5-7 cm, exposing and separating the left branch of the portal vein and ligating with 4-0 surgical sutures, then after an ischemic line between the left and right liver is formed, using the surgical scissors to cut off the liver parenchyma along the ischemic line; filling the partition with gel sponge particles for hemostasis, after no obvious bleeding, closing the abdominal wall incision layer by layer, closing the abdominal cavity, and disinfecting the incision with iodophor. […]

In the case of `C[N+](C)(C[18F])CCO` [18 F-FCH, [18 F] fluoromethylcholine], the “18 F-FCH intake in the residual liver” value (after 14 days) is on record as “decreases slightly”. Further, the “18 F-FCH uptake in the residual liver tissue” value by setting is: (first 3 days after surgery) “increases rapidly”; (from the 1st postoperative day, PET/CT 1 h after 37 MBq/kg i.v.) “significant high uptake”. In addition, the “time at which 18 F-FCH uptake reaches a peak” value (residual liver, days after surgery) is recorded as “around 7 days”.
